Test results from patent publication US20150111852A1, “1-Di(sec-butyl)-phosphinoyl-pentane (dapa-2-5) as a topical agent” (priority 2013, published 2015).

What was measured:
Strains TA 98 and TA100 = experiment: Ames test; assay type: cell-based; conditions: Strains TA 98 and TA100, with and without liver activation
Description: Preliminary toxicological studies were conducted on DAPA-2-5 and DAPA-2-7.

[1] = Repeated-dose toxicity in male rats (organ weights, histology); assay type: in vivo, rat
Description: DAPA-2-7, dissolved in 3% ethanol/97% 1,2-propanediol, or vehicle alone, was administered subcutaneously to male rats (N=8 per group) at 30 mg/kg body weight daily for 7 days, and on the 8th day, the animals were euthanized with sodium pentobarbital and the major organs (body, heart, liver, lungs, kidney, testes, brain) were removed and weighed. Heart tissues (ventricle and heart valves) and liver samples were stained with hematoxylin and eosin and the histology examined.
In a large scale trial, DAPA-2-5 was administered via drinking water to male rats for 40 days. The DAPA-2-5 was mixed with condensed milk [8.5%] at 0.5 mg/mL and liquid consumption was monitored. The averaged intake in the treated group [N=12 rats] was 41 mg/kg body weight/day for 40 days. The vehicle alone group was N=11.

[2] = HPLC content of DAPA-2-5 recovered from disintegrated prototype tablets; assay type: physicochemical
Description: A high pressure liquid chromatography [HPLC] method was developed for analysis of DAPA-2-5 in aqueous solution. The chromatographic conditions were: Column: Waters XTerra RP18, 150×4.6 mm, 3.5 μm, Column temperature: 40° C., Mobile phase : 0.1% Tetrabutyl ammonium and Tri fluro acetic acid in 900mL water and 100 mL Acetonitrile, Flow: 1.0 mUmin, Diluent : Water, Wavelength: 226 nm, Injection Volume: 100 μL, Run time: 10 min, Standard Preparation: 0.75 mg/mL of DAPA-2-5 in water. Sample Preparation: Equivalent to 0.75 mg/mL of DAPA-2-5 in water. Prototype tablets containing DAPA-2-5 were disintegrated and the content of DAPA-2-5 measured. […] It is likely that the non-eluted DAPA-2-5 remains tightly bound to sites on the Neusilin US2.

[3] = biological target: T1, TRPV1 channels (human TRPV1 gene expressed in HEK293 cells) (Homo sapiens, UniProt Q8NER1); experiment: TRPV1 agonist assay; assay type: cell-based
T1 construct: expressed in transfected cells; host or cells: HEK293 cells
T1 sequence (Q8NER1 whole entry): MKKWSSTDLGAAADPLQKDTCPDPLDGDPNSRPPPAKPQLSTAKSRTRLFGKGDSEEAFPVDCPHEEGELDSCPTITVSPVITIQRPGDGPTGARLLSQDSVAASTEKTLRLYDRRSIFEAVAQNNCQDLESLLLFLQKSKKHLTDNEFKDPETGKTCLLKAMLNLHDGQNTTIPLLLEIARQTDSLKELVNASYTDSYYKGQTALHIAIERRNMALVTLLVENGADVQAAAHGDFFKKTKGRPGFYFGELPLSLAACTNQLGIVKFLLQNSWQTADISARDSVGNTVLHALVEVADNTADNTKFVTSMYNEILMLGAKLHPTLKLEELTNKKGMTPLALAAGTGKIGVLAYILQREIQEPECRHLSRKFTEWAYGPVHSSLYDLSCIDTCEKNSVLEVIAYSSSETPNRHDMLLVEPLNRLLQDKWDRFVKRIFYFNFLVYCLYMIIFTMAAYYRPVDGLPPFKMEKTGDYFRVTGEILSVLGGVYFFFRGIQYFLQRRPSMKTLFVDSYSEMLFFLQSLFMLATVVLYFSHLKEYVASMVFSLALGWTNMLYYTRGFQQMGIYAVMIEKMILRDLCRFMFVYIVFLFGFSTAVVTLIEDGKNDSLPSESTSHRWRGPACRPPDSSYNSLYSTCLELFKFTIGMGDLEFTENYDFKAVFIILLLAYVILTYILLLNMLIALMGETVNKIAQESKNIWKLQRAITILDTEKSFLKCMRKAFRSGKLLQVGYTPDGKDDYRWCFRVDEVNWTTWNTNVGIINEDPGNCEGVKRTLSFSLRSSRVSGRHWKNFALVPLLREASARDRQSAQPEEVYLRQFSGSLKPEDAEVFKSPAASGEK
Description: To examine the specificity of the test compounds, further studies were conducted on TRPV1 channels (human TRPV1 gene expressed in HEK293 cells) and TRPA1 channels (human TRPA1 gene expressed in CHO cells). The test cells were Chinese Hamster Ovary (CHO) cells or Human Embyronic Kidney (HEK) 293 cells transfected with human TRPV1 or TRPA1 cDNAs.

ASIC3 (acid-sensing) = biological target: T2, ASIC3 (acid-sensing) (Homo sapiens, UniProt Q9UHC3); experiment: Patch-clamp in transfected cells, ASIC3; assay type: cell-based; conditions: DAPA-2-5 at 5 μM; positive control amiloride
T2 construct: expressed in transfected cells
T2 sequence (Q9UHC3 1-531): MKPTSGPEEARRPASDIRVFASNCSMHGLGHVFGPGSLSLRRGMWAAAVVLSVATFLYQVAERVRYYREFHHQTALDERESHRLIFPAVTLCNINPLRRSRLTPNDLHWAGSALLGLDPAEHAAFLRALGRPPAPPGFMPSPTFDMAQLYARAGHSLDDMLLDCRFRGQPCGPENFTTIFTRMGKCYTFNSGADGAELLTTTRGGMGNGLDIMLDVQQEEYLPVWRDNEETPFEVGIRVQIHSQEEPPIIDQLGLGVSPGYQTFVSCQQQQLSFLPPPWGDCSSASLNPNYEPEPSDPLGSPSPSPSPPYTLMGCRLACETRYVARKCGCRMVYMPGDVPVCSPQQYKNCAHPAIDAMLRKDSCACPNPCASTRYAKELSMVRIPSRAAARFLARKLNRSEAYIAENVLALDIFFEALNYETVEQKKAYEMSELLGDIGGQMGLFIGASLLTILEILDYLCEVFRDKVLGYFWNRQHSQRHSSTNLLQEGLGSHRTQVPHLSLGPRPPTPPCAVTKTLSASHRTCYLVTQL

[4] = biological target: T3, hNav1.7 (sodium channels) (Homo sapiens, UniProt Q15858); experiment: Patch-clamp in transfected cells, hNav1.7; assay type: cell-based; conditions: DAPA-2-5 at 5 μM; positive control lidocaine
T3 construct: expressed in transfected cells
T3 sequence (Q15858 whole entry): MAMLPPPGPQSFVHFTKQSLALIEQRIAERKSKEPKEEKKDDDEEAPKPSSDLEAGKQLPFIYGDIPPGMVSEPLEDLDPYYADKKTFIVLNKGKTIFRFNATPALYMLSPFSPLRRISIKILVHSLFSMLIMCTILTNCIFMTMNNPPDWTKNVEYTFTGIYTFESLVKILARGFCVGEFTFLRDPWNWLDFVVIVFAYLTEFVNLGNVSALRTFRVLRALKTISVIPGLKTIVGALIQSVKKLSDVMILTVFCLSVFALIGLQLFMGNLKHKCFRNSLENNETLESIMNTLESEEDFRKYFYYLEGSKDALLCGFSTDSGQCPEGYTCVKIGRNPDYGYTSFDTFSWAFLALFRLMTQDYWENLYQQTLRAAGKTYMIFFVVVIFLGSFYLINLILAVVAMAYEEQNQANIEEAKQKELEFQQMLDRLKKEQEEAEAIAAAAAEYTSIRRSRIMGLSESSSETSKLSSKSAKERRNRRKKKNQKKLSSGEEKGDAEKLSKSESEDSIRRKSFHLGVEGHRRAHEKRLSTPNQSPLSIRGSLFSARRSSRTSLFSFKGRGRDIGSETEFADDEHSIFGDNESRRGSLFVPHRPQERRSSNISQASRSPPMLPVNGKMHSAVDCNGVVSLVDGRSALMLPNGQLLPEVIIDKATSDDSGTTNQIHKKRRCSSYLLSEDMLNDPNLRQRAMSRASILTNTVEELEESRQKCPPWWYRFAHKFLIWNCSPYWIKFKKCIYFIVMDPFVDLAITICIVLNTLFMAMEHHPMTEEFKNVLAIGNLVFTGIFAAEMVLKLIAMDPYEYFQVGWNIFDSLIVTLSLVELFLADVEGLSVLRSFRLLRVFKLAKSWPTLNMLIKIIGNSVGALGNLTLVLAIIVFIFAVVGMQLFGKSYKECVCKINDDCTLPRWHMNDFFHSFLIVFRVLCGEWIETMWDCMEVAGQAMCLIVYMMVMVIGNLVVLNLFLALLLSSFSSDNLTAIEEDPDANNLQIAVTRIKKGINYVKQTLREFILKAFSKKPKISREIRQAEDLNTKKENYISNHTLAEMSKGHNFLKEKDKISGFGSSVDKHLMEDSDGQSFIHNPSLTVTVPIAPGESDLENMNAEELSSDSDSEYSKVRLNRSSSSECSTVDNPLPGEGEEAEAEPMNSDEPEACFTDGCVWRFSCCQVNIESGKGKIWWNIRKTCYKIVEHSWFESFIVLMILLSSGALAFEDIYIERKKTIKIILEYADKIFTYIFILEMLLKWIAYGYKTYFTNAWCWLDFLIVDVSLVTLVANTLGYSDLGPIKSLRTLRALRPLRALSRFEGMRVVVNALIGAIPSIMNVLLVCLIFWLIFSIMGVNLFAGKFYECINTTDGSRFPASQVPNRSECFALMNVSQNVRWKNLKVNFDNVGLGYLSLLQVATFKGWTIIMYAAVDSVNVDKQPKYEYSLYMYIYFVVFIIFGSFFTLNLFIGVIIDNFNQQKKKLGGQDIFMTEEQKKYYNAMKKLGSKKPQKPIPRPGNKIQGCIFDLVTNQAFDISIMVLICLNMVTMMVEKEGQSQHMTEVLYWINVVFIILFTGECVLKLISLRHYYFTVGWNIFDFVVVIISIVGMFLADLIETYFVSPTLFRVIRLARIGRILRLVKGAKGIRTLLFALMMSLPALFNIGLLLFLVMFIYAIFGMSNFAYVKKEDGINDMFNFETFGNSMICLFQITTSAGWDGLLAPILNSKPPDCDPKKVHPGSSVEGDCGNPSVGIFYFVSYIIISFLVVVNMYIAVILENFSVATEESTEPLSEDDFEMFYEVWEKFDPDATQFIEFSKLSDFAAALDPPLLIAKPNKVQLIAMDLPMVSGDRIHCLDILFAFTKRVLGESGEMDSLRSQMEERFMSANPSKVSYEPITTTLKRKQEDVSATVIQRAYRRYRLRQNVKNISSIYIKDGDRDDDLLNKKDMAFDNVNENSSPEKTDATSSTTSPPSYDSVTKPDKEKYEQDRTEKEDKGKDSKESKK

[5] = tested on: citric acid-induced cough; experiment: Guinea pig cough model, citric acid mist; assay type: in vivo; conditions: 2 mg/mL in saline, 75 μL per animal, 1 M citric acid mist, 10 min observation period
Description: Male specific pathogen—free guinea pigs about one month of age, weighing 250 to 300 g, were obtained from the medical experimental animal center of Guang Dong Province, China, and housed in rooms maintained at 22±2° C. and 55±15% humidity with a 12-hr light cycle and 20 air changes per hr. The experimental procedures were approved by the Institutional Animal Care and Use Committee. Guinea pigs were placed in a transparent plastic 2 L plethysmography chamber equipped with a bias flow regulator that withdrew air at a rate of 2.5 L/min (Buxco, Wilmington, N.C., USA). […] The frequency was detected as a transient change in airflow in the chamber and the signal recorded via a pressure transducer and computer. Additionally, the audio-amplified count was also recorded electronically. Coughs were counted for the 10 min exposure period. The experiment was visually monitored by the investigator. The baseline frequency of coughing was recorded for all animals (N=20) and 7 days later, animals were anesthetized with diethyl ether. […] Ten min after injection, the guinea pigs were exposed to the citric acid mist and the number of coughs recorded.

capsaicin-induced cough = experiment: Guinea pig cough model, capsaicin mist; assay type: in vivo; conditions: capsaicin 0.1 mM mist, identical design
Description: This study was repeated with an identical design, but using capsaicin 0.1 mM mist as the stimulus.

[6] = tested on: throat, airway and chest discomfort; experiment: Case studies with DAPA-2-5 tablets in human subjects; assay type: in vivo; conditions: for precipitation of “ice cream headache” (Case Study 5): ODT-A 2 mg
[7] = male rats, 30 mg/kg subcutaneously daily for 7 days

For `CCCCCP(=O)(C(C)CC)C(C)CC` (stereo not shown) [DAPA-2-5, 1-Di(sec-butyl)-phosphinoyl-pentane], the “mutagenic in the Ames test” value (Strains TA 98 and TA100) was “Neither of these compounds was mutagenic”, the “difference in organ weights or histology vs vehicle” value ([1]; male rats, via drinking water, averaged intake 41 mg/kg body weight/day for 40 days) was “no statistical difference” and the “difference in organ weights or histology vs vehicle” value ([1]; rats, 20 mg/kg perioral by gavage for 7 days) was “no statistical difference”. The “DAPA-2-5 recovered from the aqueous phase” value [2] was 86±2%, the “times less potent than DAPA-2-6 in stimulating TRPV1” value [3] was 54 and the “agonist or antagonist activity, ASIC3” value (ASIC3 (acid-sensing)) was “No agonist or antagonist activities”. For the same compound, the “agonist or antagonist activity, hNav1.7” value [4] was “No agonist or antagonist activities”, the cough frequency [5] was 6.7±1.6 coughs and the “effect on capsaicin-induced coughing” value (capsaicin-induced cough) was “inhibited the capsaiscin-induced coughing”. The “effective in reducing throat discomfort (Case Study 7)” value ([6]; ODT-A 1.0 mg as needed, six women) was 100%, the “hoarseness and loss of voice (Case Study 6)” value ([6]; ODT-A 1 mg, twenty trials) was “immediate relief from throat discomfort” and the “choking and gagging in asthma (Case Study 4)” value ([6]; ODT-A 1 mg, two subjects) was “effective in controlling choking and gagging”. The “cough in cough variant asthma (Case Study 4)” value ([6]; ODT-A 1.5 mg, two or three tablets at a time, after a week's trial) was “completely under control”, the “precipitation of “ice cream headache” (Case Study 5)” value [6] was “Neither of the ODT precipitated a headache response” and the “relief of hoarseness (Case Study 1)” value ([6]; ODT-A, 1 to 1.5 mg, person, five occasions) was “fully effective in relieving their hoarseness”. For the same compound, the “time to disappearance of chest discomfort (Case Study 8, second person)” value ([6]; four tablets with water) was “about 10 min”, the “snoring (Case Study 9)” value ([6]; tablets 2 mg before sleep) was “stopped snoring” and the “time to relief of chest discomfort (Case Study 8)” value ([6]; three tablets, each 1.5 mg) was ≤ 5 min. The “hiccups (Case Study 5)” value ([6]; two DAPA-2-5 ODT) was “stopped within several min”, the “throat discomfort from acid reflux (Case Study 5)” value ([6]; two DAPA-2-5 ODT) was “immediately controlled their throat discomfort from acid reflux” and the “nasal congestion (Case Study 2)” value ([6]; two tablets of 1 mg or one of 1.5 mg, with viral cold) was “effective remedy”.
With `CCCCCCCP(=O)(C(C)CC)C(C)CC` (stereo not shown) [DAPA-2-7, 1-Di(sec-butyl) phosphinoyl-heptane] the “mutagenic in the Ames test” value (Strains TA 98 and TA100) was “Neither of these compounds was mutagenic”, the “differences in body or organ weights vs vehicle” value [1, 7] was “no significant differences” and the “heart and liver histology” value [1, 7] was “normal”. The “precipitation of “ice cream headache” (Case Study 5)” value [6] was “Neither of the ODT precipitated a headache response”.
